Measured values reported in patent US8889112B2, “Ophthalmic formulations including selective alpha 1 antagonists” (Ocularis Pharma, LLC, priority 1999, dated 2014).
“And” between values parts separate entries of the source, which are not always exact repeats. Identical values can stand only once. Counter-ions that a name gives are not always drawn. Like-named read-outs stand apart in the source and are kept apart here.

Assays:
human eye [1] = settings: for Effectiveness in reducing pupil dilation in dim light: topical, phenoxybenzamine, prazosin, tolamine 0.1% to 5%, labetalol S,S and S,R isomers 0.1% to 2%; for Duration of effect: single administration per day, eye drop or drop on soft contact lens
Procedure: A preferred concentration of about 1 to about 5 milligrams of active agent per cc of total formulation volume in an embodiment may be administered by placing a single drop on a moist soft contact lens, and inserting the lens for about 15 minutes to about 45 minutes at one time per day. […] The drop may be administered in a one to five milligram per cc concentration directly to the eye as a recommended daily or BID dosing according to an embodiment of the present invention.
A 5 mg/ml vial of phentolamine was diluted in an artificial tear formulation to approximately 6.0 cc of solution.
Labetalol, a potent beta adrenergic receptor antagonist, consists of four isomers, two of which have some alpha 1 antagonist activity.

human eye [2] = experiment: Effect of alpha adrenergic receptor antagonists on pupil dilation (Table 1, patients); format: in vivo; settings: for Effect on pupil diam. in darkness (mm): pupil diameter after drug, from 7.5 mm before, topical, 5 mg/ml (phentolamine 3.3 mg/ml via soft contact lens for 30 minutes)
Description: However, only the imidazolines obtain the desired reduction in dilation without causing excessive redness of the eye. In addition, the present invention in an embodiment provides a sub-class of alpha antagonists that can act as a sole active component in an ophthalmic medication to effectively reduce pupil light reflex while providing minimal, if any, redness response upon application thereof to the eye. In an embodiment, the sub-class of alpha antagonists includes alpha 1 selective antagonists, including alpha 1a selective antagonists, such as tamsulosin.

human eye [3] = settings: cited from earlier work
human eye [4] = experiment: Effect of phentolamine 0.35% on pupil diameter in dim and bright light (Table 2); format: in vivo
human eye [5] = experiment: Effect of phentolamine eye drops on visual acuity in dim light (Table 3); format: in vivo; settings: one line per subject
Description: The results illustrate the benefit that is derived from reducing pupil diameter by 1 mm or more and/or pupil area by 20% or more in dim light conditions pursuant to an embodiment. In this regard, a significant increase in spherical aberrations is typically found per each one millimeter of increase in pupil size diameter above 5 mm. These aberrations generally increase as a function of severity of the refractive error, particularly increases in the myopic spherical equivalent of refractive error. Coma may increase, as well as other higher order aberrations, as pupil size diameter increases, again especially as refractive error increases. Thus, a reduction in pupil diameter by 1 mm or more and/or pupil area by 20% or more can effectively act to improve vision in dim light conditions. As previously discussed, the present invention contemplates the use of a single active agent, preferably an alpha 1a selective antagonist, that can optimize pupil light reflex while minimizing, if not eliminating, redness. [table]

[6] = duration of effect on pupil, 5 mg/ml (phentolamine 3.3 mg/ml via soft contact lens)
[7] = pupil diameter after 3.3 mg/cc, single drop on soft contact lens placed for 30 minutes, one line per subject
[8] = pupil diameter before drug (baseline), one line per subject

CC(COc1ccccc1)N(CCCl)Cc1ccccc1 (stereo not drawn) [Phenoxybenzamine]
Redness / vasodilation of the eye (human eye [1]; topical application as only active compound): induce much more vasodilation and congestion | Redness / vasodilation of the eye (human eye [1]; topical application as only active compound, listed as phenoxybenzamine): unacceptably high level of redness | Effectiveness in reducing pupil dilation in dim light (human eye [1]): have not been as effective as phentolamine | Duration (hrs) (human eye [2]; [6]): ≧20 hrs | Effect on pupil diam. in darkness (mm) (human eye [2]): 7.5 -> 5.5 mm

CC(CCc1ccccc1)NCC(O)c1ccc(O)c(C(N)=O)c1 (stereo not drawn) [Labetalol]
Effectiveness in reducing pupil dilation in dim light (human eye [1]): modestly effective

COc1cc2nc(N3CCN(C(=O)c4ccco4)CC3)nc(N)c2cc1OC [Prazosin]
Duration (human eye [2]; [6]): 5 to 12 h | Effect on pupil diam. in darkness (mm) (human eye [2]): 7.5 -> 6 mm

Cc1ccccc1N1CCN(CCc2nnc3n2CCCC3)CC1 [Dapiprazole, 5,6,7,8 tetrahydro-3-[2-(4-o,tolyl-1-piperazinyl)ethyl]-8-triazolo[4,3-a]pyridine hydrochloride]
Redness / vasodilation of the eye (human eye [1]; in vivo): unacceptably high levels of eye redness with severe blood vessel dilation | Effectiveness in reducing pupil dilation in dim light (human eye [1]): minimal if any clinically significant effect | Duration (human eye [2]; [6]): 5 to 12 h | Effect on pupil diam. in darkness (mm) (human eye [2]): 7.5 -> 7 mm | Redness and chemosis upon instillation (human eye [3]; 0.5% solution): substantial increased redness and conjunctival chemosis | Effectiveness in reducing pupil size in dim light (human eye [3]; topical, compared to phentolamine and phenoxybenzamine, U.S. Pat. No. 6,515,006): not as effective

Cc1ccc(N(CC2=NCCN2)c2cccc(O)c2)cc1 [Phentolamine]
Bright Light Post mm (human eye [4]; [7]): 3.0 mm (2×) and 2.5 mm (3×) | Dim Light Post mm (human eye [4]; [7]): 4.0 mm (3×) and 3.0 mm and 3.5 mm | Bright Light Pre mm (human eye [4]; [8]): 4.0 mm and 3.0 mm (3×) and 3.5 mm | Dim Light Pre mm (human eye [4]; [8]): 7.5 mm (2×) and 3.5 mm and 4.0 mm and 7.0 mm | halos reduced (human eye [4]; subject, post drug): 70% reduced; depth | Redness / vasodilation of the eye (human eye [1]; in vivo): very slight, transient redness | Duration of effect (human eye [1]): 20 to 24 h | Duration of effect (human eye [1]; listed as phentolamine): 20 to 24 h | Duration (human eye [2]; [6]): 20 to 40 h | Effect on pupil diam. in darkness (mm) (human eye [2]): 7.5 -> 4.0 mm | Pupil Diameter in Dim Light Post-Drug mm (human eye [5]; after phentolamine eye drops): 6.9 mm (2×) and 7.1 mm (2×) and 5.9 mm (2×) and 7.5 mm and 6.5 mm and 7.4 mm | Pupil Diameter in Dim Light Pre-Drug mm (human eye [5]; before drug (baseline)): 7.7 mm and 8.5 mm and 7.9 mm (3×) and 7.8 mm (2×) and 8.2 mm (2×) | Pupil Diameter Change mm (human eye [5]; reduction in dim light, pre minus post): 0.8 mm (2×) and 1.4 mm (2×) and 2.0 mm and 0.9 mm and 0.4 mm and 1.1 mm and 1.9 mm | Pupil Area Change % (human eye [5]; reduction of pupil area in dim light): 20% and 30% and 44% and 22% and 10% and 25% and 32% and 19% and 43% | Dim Light Contrast Post-Drug (human eye [5]; visual acuity after phentolamine eye drops): 20/25 and 20/22 and 20/20 and 20/24 and 20/38 and 20/21 (2×) and 20/32 and 20/50 | Dim Light Contrast Pre-Drug (human eye [5]; visual acuity before drug (baseline)): 20/29 (2×) and 20/35 and 20/32 (2×) and 20/63 and 20/38 and 20/40 and 20/53

CC[C@@H]1C(=O)OC[C@@H]1Cc1cncn1C [pilocarpine]
Duration of miotic effect (human eye [3]; in vivo): only a few hours | Side effects (human eye [3]; in vivo): brow ache, ciliary muscle contraction and pseudo myopia, excessive dimness when first applied | Pupil size when first applied (human eye [3]; usually): less than 2 mm

Tolamine
Effectiveness in reducing pupil dilation in dim light (human eye [1]): slight pupillary reduction in dilation in dim light but appears to be less effective than phentolamine | Duration (human eye [2]; [6]): 5 to 12 h | Effect on pupil diam. in darkness (mm) (human eye [2]): 7.5 -> 6 mm
